Data as given in US12459932B2, “KIF18A inhibitors” (AMGEN INC., priority 2018, dated 2025).
Counter-ions that a name gives are not always drawn.

Biological target: T1, Recombinant human KIF18A (1-467 His-tagged) (Homo sapiens, UniProt Q8NI77)
T1 construct: Recombinant human KIF18A (1-467 His-tagged) protein; His
Assay: KIF18A Enzyme Assay: microtubule-stimulated ATPase activity (ADP-Glo)
Type: biochemical
Settings: 30 nM KIF18A, 30 μg/mL pig microtubules, ATP 75 μM (Km), ADP-Glo luminescence
Summary of the method: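 Measures microtubule-stimulated ATPase activity as ADP formed, detected by luminescence. Compounds were tested as 2-fold serial dilutions over 22 points. IC50 values came from four-parameter logistic fits.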

T1 sequence (Q8NI77 1-467): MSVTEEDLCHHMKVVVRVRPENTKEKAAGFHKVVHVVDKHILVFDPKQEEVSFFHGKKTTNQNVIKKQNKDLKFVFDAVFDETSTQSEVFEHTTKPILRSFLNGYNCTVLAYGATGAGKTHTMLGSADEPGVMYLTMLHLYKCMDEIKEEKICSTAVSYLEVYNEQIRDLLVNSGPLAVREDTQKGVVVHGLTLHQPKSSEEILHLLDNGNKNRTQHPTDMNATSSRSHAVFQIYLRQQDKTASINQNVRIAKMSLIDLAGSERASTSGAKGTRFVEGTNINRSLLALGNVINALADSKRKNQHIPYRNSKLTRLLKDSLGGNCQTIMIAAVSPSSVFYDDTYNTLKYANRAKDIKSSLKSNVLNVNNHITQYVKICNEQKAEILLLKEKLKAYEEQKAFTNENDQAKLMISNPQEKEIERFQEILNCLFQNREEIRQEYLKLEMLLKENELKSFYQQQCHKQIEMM
T1 sequence (P02550 whole entry partner): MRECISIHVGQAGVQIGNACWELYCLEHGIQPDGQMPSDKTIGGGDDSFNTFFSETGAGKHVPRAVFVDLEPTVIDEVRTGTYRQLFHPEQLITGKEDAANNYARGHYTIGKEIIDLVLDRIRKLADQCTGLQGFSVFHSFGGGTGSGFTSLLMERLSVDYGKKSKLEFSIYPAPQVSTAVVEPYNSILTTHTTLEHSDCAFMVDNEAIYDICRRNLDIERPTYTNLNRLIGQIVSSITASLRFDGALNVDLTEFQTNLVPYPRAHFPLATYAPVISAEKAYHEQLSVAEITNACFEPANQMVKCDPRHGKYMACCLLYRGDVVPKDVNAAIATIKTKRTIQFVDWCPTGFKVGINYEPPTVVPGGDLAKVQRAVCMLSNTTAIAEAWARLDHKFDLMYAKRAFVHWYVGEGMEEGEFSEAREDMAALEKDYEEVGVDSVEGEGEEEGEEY
T1 sequence (P02554 whole entry partner): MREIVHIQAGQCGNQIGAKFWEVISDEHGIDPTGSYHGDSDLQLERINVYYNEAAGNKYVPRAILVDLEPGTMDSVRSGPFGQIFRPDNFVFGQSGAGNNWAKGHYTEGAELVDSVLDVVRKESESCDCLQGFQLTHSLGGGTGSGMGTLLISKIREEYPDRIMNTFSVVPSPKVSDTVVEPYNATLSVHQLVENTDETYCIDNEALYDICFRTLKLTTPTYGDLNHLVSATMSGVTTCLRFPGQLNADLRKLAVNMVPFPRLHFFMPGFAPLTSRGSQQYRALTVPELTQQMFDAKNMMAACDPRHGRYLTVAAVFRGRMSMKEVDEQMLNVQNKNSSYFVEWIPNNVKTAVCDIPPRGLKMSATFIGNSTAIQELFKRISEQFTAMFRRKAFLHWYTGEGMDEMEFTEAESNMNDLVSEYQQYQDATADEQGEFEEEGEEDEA

SMILES	IC50
CC1(COc2cccc(NC(=O)c3ccc(NS(=O)(=O)CCO)cc3N3CCC4(CC3)CC4)n2)COC1 [Example 16-2, 4-((2-Hydroxyethyl)sulfonamido)-N-(6-((3-methyloxetan-3-yl)methoxy)pyridin-2-yl)-2-(6-azaspiro[2.5]octan-6-yl)benzamide]	50 nM
CN1CC(COc2cccc(NC(=O)c3ccc(NS(=O)(=O)CCO)cc3N3CCC4(CC3)CC4)n2)C1 [Example 16-3, 4-((2-Hydroxyethyl)sulfonamido)-N-(6-((1-methylazetidin-3-yl)methoxy)pyridin-2-yl)-2-(6-azaspiro[2.5]octan-6-yl)benzamide]	63 nM
CC(O)COc1cccc(NC(=O)c2ccc(NS(=O)(=O)CCO)cc2N2CCC3(CC2)CC3)n1 (stereo not shown) [Example 16-4, 4-((2-Hydroxyethyl)sulfonamido)-N-(6-(2-hydroxypropoxy)pyridin-2-yl)-2-(6-azaspiro[2.5]octan-6-yl)benzamide]	115 nM
CC(C)(O)CCOc1cccc(NC(=O)c2ccc(NS(=O)(=O)CCO)cc2N2CCC3(CC2)CC3)n1 [Example 16-5, N-(6-(3-Hydroxy-3-methylbutoxy)pyridin-2-yl)-4-((2-hydroxyethyl)sulfonamido)-2-(6-azaspiro[2.5]octan-6-yl)benzamide]	84 nM
O=C(Nc1cccc(OCCC(O)C(F)(F)F)n1)c1ccc(NS(=O)(=O)CCO)cc1N1CCC2(CC1)CC2 (stereo not shown) [Example 16-6, 4-((2-Hydroxyethyl)sulfonamido)-2-(6-azaspiro[2.5]octan-6-yl)-N-(6-(4,4,4-trifluoro-3-hydroxybutoxy)pyridin-2-yl)benzamide]	81 nM
CC(O)CCOc1cccc(NC(=O)c2ccc(NS(=O)(=O)CCO)cc2N2CCC3(CC2)CC3)n1 (stereo not shown) [Example 16-7, N-(6-(3-Hydroxybutoxy)pyridin-2-yl)-4-((2-hydroxyethyl)sulfonamido)-2-(6-azaspiro[2.5]octan-6-yl)benzamide]	31 nM
O=C(Nc1cccc(OCC(O)C(F)(F)F)n1)c1ccc(NS(=O)(=O)CCO)cc1N1CCC2(CC1)CC2 (stereo not shown) [Example 16-8, 4-((2-Hydroxyethyl)sulfonamido)-2-(6-azaspiro[2.5]octan-6-yl)-N-(6-(3,3,3-trifluoro-2-hydroxypropoxy)pyridin-2-yl)benzamide]	18 nM
O=C(Nc1cccc(OCCC(F)F)n1)c1ccc(NS(=O)(=O)CCO)cc1N1CCC2(CC1)CC2 [Example 16-9, N-(6-(3,3-Difluoropropoxy)pyridin-2-yl)-4-((2-hydroxyethyl)sulfonamido)-2-(6-azaspiro[2.5]octan-6-yl)benzamide]	51 nM
Cc1cc(NC(=O)c2ccc(NS(=O)(=O)CCO)cc2N2CCC3(CC2)CC3)nc(OCCC(F)(F)F)c1 [Example 17, 4-((2-Hydroxyethyl)sulfonamido)-N-(4-methyl-6-(3,3,3-trifluoropropoxy)pyridin-2-yl)-2-(6-azaspiro[2.5]octan-6-yl)benzamide]	24 nM
Cc1cc(NC(=O)c2ccc(NS(=O)(=O)CCO)cc2N2CCC3(CC2)CC3)nc(OCC(O)C(F)(F)F)c1 (stereo not shown) [Example 17-1, 4-((2-Hydroxyethyl)sulfonamido)-N-(4-methyl-6-(3,3,3-trifluoro-2-hydroxypropoxy)pyridin-2-yl)-2-(6-azaspiro[2.5]octan-6-yl)benzamide]	68 nM
Cc1cc(NC(=O)c2ccc(NS(=O)(=O)CCO)cc2N2CCC3(CC2)CC3)nc(OCC(C)(C)O)c1 [Example 17-2, N-(6-(2-Hydroxy-2-methylpropoxy)-4-methylpyridin-2-yl)-4-((2-hydroxyethyl)sulfonamido)-2-(6-azaspiro[2.5]octan-6-yl)benzamide]	59 nM
Cc1cc(NC(=O)c2ccc(NS(=O)(=O)CCO)cc2N2CCC3(CC2)CC3)nc(OCCCC(F)(F)F)c1 [Example 17-3, 4-((2-Hydroxyethyl)sulfonamido)-N-(4-methyl-6-(4,4,4-trifluorobutoxy)pyridin-2-yl)-2-(6-azaspiro[2.5]octan-6-yl)benzamide]	184 nM
Cc1ccc(NC(=O)c2ccc(NS(=O)(=O)CCO)cc2N2CCC3(CC2)CC3)nc1N1CCOCC1 [Example 18, 4-((2-Hydroxyethyl)sulfonamido)-N-(5-methyl-6-morpholinopyridin-2-yl)-2-(6-azaspiro[2.5]octan-6-yl)benzamide]	12 nM
C[C@@H]1CN(c2cc(C3CC3)cc(NC(=O)c3ccc(NS(=O)(=O)CCO)cc3N3CCC4(CC3)CC4)n2)CCO1 [Example 19, (R)—N-(4-cyclopropyl-6-(2-methylmorpholino)pyridin-2-yl)-4-((2-hydroxyethyl)sulfonamido)-2-(6-azaspiro[2.5]octan-6-yl)benzamide]	87 nM
C[C@@H]1CN(c2cc(C(F)(F)F)cc(NC(=O)c3ccc(NS(=O)(=O)CCO)cc3N3CCC4(CC3)CC4)n2)CCO1 [Example 20, (R)-4-((2-Hydroxyethyl)sulfonamido)-N-(6-(2-methylmorpholino)-4-(trifluoromethyl)pyridin-2-yl)-2-(6-azaspiro[2.5]octan-6-yl)benzamide]	93 nM
N#Cc1ccc(NC(=O)c2ccc(NS(=O)(=O)CCO)cc2N2CCC3(CC2)CC3)nc1N1CCC(F)(F)CC1 [Example 21, N-(5-Cyano-6-(4,4-difluoropiperidin-1-yl)pyridin-2-yl)-4-((2-hydroxyethyl)sulfonamido)-2-(6-azaspiro[2.5]octan-6-yl)benzamide]	25 nM
Cc1ccc(NC(=O)c2ccc(NS(=O)(=O)CCO)cc2N2CCC3(CC2)CC3)nc1N1CCC(F)(F)CC1 [Example 22, N-(6-(4,4-Difluoropiperidin-1-yl)-5-methylpyridin-2-yl)-4-((2-hydroxyethyl)sulfonamido)-2-(6-azaspiro[2.5]octan-6-yl)benzamide]	41 nM
Cc1cc(NC(=O)c2ccc(NS(=O)(=O)CCO)cc2N2CCC3(CC2)CC3)nc(C2CCC(F)(F)CC2)c1 [Example 23, N-(6-(4,4-difluorocyclohexyl)-4-methylpyridin-2-yl)-4-((2-hydroxyethyl)sulfonamido)-2-(6-azaspiro[2.5]octan-6-yl)benzamide]	41 nM
C[C@@H]1CN(c2nc(NC(=O)c3ccc(NS(=O)(=O)CCO)cc3N3CCC4(CC3)CC4)ccc2F)CCO1 [Example 24, (R)-N-(5-Fluoro-6-(2-methylmorpholino)pyridin-2-yl)-4-((2-hydroxyethyl)sulfonamido)-2-(6-azaspiro[2.5]octan-6-yl)benzamide]	33 nM
C[C@@H]1CN(c2cc(C#N)cc(NC(=O)c3ccc(NS(=O)(=O)CCO)cc3N3CCC4(CC3)CC4)n2)CCO1 [Example 25, (R)-N-(4-Cyano-6-(2-methylmorpholino)pyridin-2-yl)-4-((2-hydroxyethyl)sulfonamido)-2-(6-azaspiro[2.5]octan-6-yl)benzamide]	41 nM
CC(C)(C)S(=N)(=O)c1cccc(NC(=O)c2ccc(NS(=O)(=O)CCO)cc2N2CCC3(CC2)CC3)n1 (stereo not shown) [Example 26, 4-((2-Hydroxyethyl)sulfonamido)-N-(6-(2-methylpropan-2-ylsulfonimidoyl)pyridin-2-yl)-2-(6-azaspiro[2.5]octan-6-yl)benzamide]	363 nM
O=C(Nc1cccc(OCCC(F)(F)F)n1)c1ccc(S(=O)(=O)C2CNC2)cc1N1CCC2(CC1)CC2 [Example 31, 4-(Azetidin-3-ylsulfonyl)-2-(6-azaspiro[2.5]octan-6-yl)-N-(6-(3,3,3-trifluoropropoxy)pyridin-2-yl)benzamide trifluoroacetate]	55 nM
